Measurements as given in ChEMBL document CHEMBL1130744, “Potent and selective inhibitors of the proteasome: dipeptidyl boronic acids” (Bioorg Med Chem Lett, 1998).
Non-standard residues stand in square brackets, D forms with d. Residues, ends and D or L forms follow the SMILES beside them. *: point of attachment. 1Nal = N[C@@H](Cc1cccc2ccccc12)C(=O)O; 2Nal = N[C@@H](Cc1ccc2ccccc2c1)C(=O)O; Cbz = O=C(OCc1ccccc1)*; CF3 = FC(F)(F)*; CH2Cl = ClC*

Biological target: Chymotrypsinogen B (Homo sapiens, UniProt P17538)
Sequence (P17538 34-164 limits assumed, other chains not shown): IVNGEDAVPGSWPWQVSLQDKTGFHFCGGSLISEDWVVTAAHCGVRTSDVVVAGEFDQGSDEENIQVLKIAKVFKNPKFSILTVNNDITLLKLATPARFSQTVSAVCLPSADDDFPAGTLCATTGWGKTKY
Sequence (P17538 167-263 limits assumed, other chains not shown): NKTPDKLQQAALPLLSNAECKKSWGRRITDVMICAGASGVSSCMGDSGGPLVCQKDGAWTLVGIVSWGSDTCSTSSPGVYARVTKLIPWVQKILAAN
Experiment: Inhibitory activity against human Chymotrypsinogen

`CC(C)C[C@H](NC(=O)[C@H](Cc1ccccc1)NC(=O)c1cnccn1)B(O)O` [BORTEZOMIB] was tested, and the Ki was 320 nM.

Biological target: T1, Neutrophil elastase (Homo sapiens, UniProt P08246)
T1 sequence (P08246 whole entry): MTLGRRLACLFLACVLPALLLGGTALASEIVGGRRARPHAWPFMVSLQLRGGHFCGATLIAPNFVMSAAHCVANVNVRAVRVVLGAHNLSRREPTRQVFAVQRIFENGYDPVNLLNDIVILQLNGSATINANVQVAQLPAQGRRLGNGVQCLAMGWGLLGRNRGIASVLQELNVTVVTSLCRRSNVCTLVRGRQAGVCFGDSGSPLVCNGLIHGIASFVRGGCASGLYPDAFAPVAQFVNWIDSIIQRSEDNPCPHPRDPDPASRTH
Experiment: Inhibitory activity against human leukocyte elastase

For `CC(C)C[C@H](NC(=O)[C@H](Cc1ccccc1)NC(=O)c1cnccn1)B(O)O` [BORTEZOMIB], the Ki was 2300 nM.

Biological target: T2, Cathepsin G (Homo sapiens, UniProt P08311)
T2 sequence (P08311 whole entry): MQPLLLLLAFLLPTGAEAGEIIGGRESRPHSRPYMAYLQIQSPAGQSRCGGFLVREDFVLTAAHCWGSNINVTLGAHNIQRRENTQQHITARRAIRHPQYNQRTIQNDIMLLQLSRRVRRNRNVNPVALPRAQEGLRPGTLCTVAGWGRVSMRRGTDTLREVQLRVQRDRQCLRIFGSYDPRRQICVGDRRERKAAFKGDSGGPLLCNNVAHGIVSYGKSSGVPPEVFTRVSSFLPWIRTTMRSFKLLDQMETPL
Experiment: Inhibitory activity against human cathepsin G

In the case of `CC(C)C[C@H](NC(=O)[C@H](Cc1ccccc1)NC(=O)c1cnccn1)B(O)O` [BORTEZOMIB], the Ki is reported as 630 nM.

Biological target: Prothrombin (Homo sapiens, UniProt P00734)
Experiment: Inhibitory activity against thrombin

`CC(C)C[C@H](NC(=O)[C@H](Cc1ccccc1)NC(=O)c1cnccn1)B(O)O` [BORTEZOMIB] gave a Ki of 13000 nM.

Biological target: Proteasome
Experiment: Inhibitory activity against 20S Proteasome
Assay type: subcellular, Oryctolagus cuniculus

In order of falling Ki:
1. CC(C)C[C@H](NC(=O)[C@H](CC(C)C)NC(=O)[C@H](CC(C)C)NC(=O)OCc1ccccc1)C(=O)CCl (Cbz-Leu-Leu-Leu-CH2Cl)  22000 nM
2. CC(C)C[C@H](NC(=O)OCc1ccccc1)C(=O)N[C@@H](CC(C)C)C(=O)NCC=O (Cbz-Leu-Leu-Gly-aldehyde)  3800 nM
3. CC(C)C[C@@H](C=O)NC(=O)[C@H](Cc1ccccc1)NC(=O)c1cnccn1  1600 nM
4. CC(C)C[C@H](NC(=O)OCc1ccccc1)C(=O)N[C@@H](CC(C)C)C(=O)N[C@@H](CC(C)C)C(=O)C(F)(F)F (Cbz-Leu-Leu-Leu-CF3)  1400 nM
5. CC(C)C[C@H](NC(=O)OCc1ccccc1)C(=O)N[C@@H](CC(C)C)C(=O)N[C@@H](CC(C)C)C(=O)c1nc2ccccc2o1  214 nM
6. CC(C)C[C@H](NC(=O)OCc1ccccc1)C(=O)N[C@@H](CC(C)C)C(=O)N[C@@H](C)C=O (Cbz-Leu-Leu-Ala-aldehyde)  210 nM
7. CC[C@@H](C)[C@@H](C=O)NC(=O)[C@H](CC(C)C)NC(=O)[C@H](CC(C)C)NC(=O)OCc1ccccc1  130 nM
8. CC(C)C[C@@H](C=O)NC(=O)[C@H](Cc1cccc2ccccc12)NC(=O)c1cnccn1  97 nM
9. CCOC(=O)C(=O)C(=O)[C@H](CC(C)C)NC(=O)[C@H](CC(C)C)NC(=O)[C@H](CC(C)C)NC(=O)OCc1ccccc1  45 nM
10. CC(C)C[C@H](NC(=O)OCc1ccccc1)C(=O)N[C@@H](CC(C)C)C(=O)N[C@H](C=O)Cc1ccc2ccccc2c1 (Cbz-Leu-Leu-[2Nal]-aldehyde)  25 nM
11. CC(C)C[C@@H](C=O)NC(=O)[C@H](CC(C)C)NC(=O)[C@H](CC(C)C)NC(=O)OCc1ccccc1 [MG-132] (Cbz-Leu-Leu-Leu-aldehyde)  4 nM
12. CC(C)C[C@@H](C=O)NC(=O)[C@H](CC(C)C)NC(=O)[C@H](Cc1ccc2ccccc2c1)NC(=O)OCc1ccccc1 (Cbz-[2Nal]-Leu-Leu-aldehyde)  0.24 nM
13. CC(C)C[C@H](NC(=O)[C@H](Cc1cccc2ccccc12)NC(=O)c1cnccn1)B(O)O  0.18 nM
14. CC(C)C[C@@H](C=O)NC(=O)[C@H](Cc1cccc2ccccc12)NC(=O)[C@H](Cc1ccc2ccccc2c1)NC(=O)OCc1ccccc1 (Cbz-[2Nal]-[1Nal]-Leu-aldehyde)  0.015 nM

Biological target: Cathepsin B (Homo sapiens, UniProt P07858)
Experiment: Inhibitory activity against Cathepsin B

`CC(C)C[C@H](NC(=O)[C@H](CC(C)C)NC(=O)[C@H](CC(C)C)NC(=O)OCc1ccccc1)B(O)O` showed a Ki of 6.1 nM.
